# According to patent US20260285716A1, “METHODS TO REDUCE CONTAMINATION, BIOFILM, AND FOULING FROM WATER SYSTEMS AND SURFACES” (Aequor Inc., priority 2022, published 2026):
# Tested on: Pseudomonas aeruginosa
# Format: cell-based
substance,measurement,value
butyl acid phosphate [BAP],MBEC (removal of 48-hr biofilm),≤47 ppm
